For assay [1], the system named is corticospinal motor neurons derived from prp-TDP-43^A315T-UeGFP mouse model. The experiment in a line: Neurite length in primary corticospinal motor neurons from prp-TDP-43^A315T-UeGFP mice. It counts as cell-based. The settings on record: 10 nM, 100 nM and 1000 nM, vs DMSO vehicle. As to the method:
Studies were performed in primary cells derived from the prp-TDP-43^A315T-UeGFP mouse model (Gautam, et al. Acta Neuropathol. 2019 January; 137(1): 47-69). Briefly, these mice express a pathogenic human TDP43 transgene which leads to severe structural alterations in the mitochondria, nucleus, and endoplasmic reticulum on the background of an eGFP reporter mouse. Both transgene (prp) and reporter (UCHL1) are driven by tissue specific promoter elements, leading to the generation of fluorescent green corticospinal motor neurons carrying the TDP43 mutation. Utilizing the endogenous fluorescence of the eGFP reporter, corticospinal motor neurons can be directly visualized in situ. Mixed cortical cultures were derived from the brains of prp-TDP-43^A315T-UeGFP mice and allowed to divide in serum free minimal medium for 3 cell divisions. Culture media +/− drug was removed and replenished daily. Doses of Compound Ia utilized in the experiment were 10 nM; 100 nM and 1000 nM. Drug was prepared in DMSO vehicle, and DMSO was used as vehicle control (<1% volume/volume). Cells were imaged using standard fluorescent microscopy techniques. Neurite length was calculated using automated imaging software (NIH Image J) on GFP expressing cells. Three independent biological replicates were performed, with a minimum of 10 motor neurons imaged per each replicate. […]

In assay [2] the test system is C57BL/6 mice injected with A53T mutant alpha-synuclein viral particles. Description: Dopaminergic neuron loss in substantia nigra pars compacta induced by AAV9 human A53T alpha-synuclein (TH positive neuron counts). As to conditions: 0.5 mg/kg or 5.0 mg/kg daily ip for 5 weeks, vs group A (A53T AAV, no drug). It counts as in vivo, mouse. As to the method: Dopaminergic neuron loss in the substantia nigra pars compacta (SNc) was induced in wildtype C57BL/6 mice using AAV9 mediated viral delivery of human alpha-synuclein harboring the pathogenic A53T mutation. 4×10^10 viral particles per SNc were injected bilaterally via stereotactic surgery. Animals were nine weeks of age when viral transduction was performed. Animals were treated daily with intraperitoneal administration of (Ia) beginning 24 hours before viral transduction and continued for 5 weeks. Experimental groups were as follows: • 1. Group A—AAV A53T injected, vehicle treatment (n=7) • 2. Group B1—AAV A53T injected, (Ia) at 0.5 mg/kg treatment (n=8) • 3. Group B2—AAV A53T injected, (Ia) at 5.0 mg/kg treatment (n=8) • 4. Group C1—Sham AAV9 injected, (Ia) at 0.5 mg/kg treatment (n=6) • 5. Group C2—Sham AAV9 injected, (Ia) at 5.0 mg/kg treatment (n=7)
Five weeks following viral transduction, animals were sacrificed and brains were removed and processed for immunohistochemistry and cell counts (i.e., number of TH positive neurons) in the substantia nigra pars compacta were performed via automated stereology. Serial sections were cut and stained with tyrosine hydroxylase (TH) to enumerate the number of dopaminergic neurons. Results are illustrated in FIGS. 6A and 6B; ** p<0.01 vs groups; *** p<0.001 vs group A; ^OO p<0.001 vs group C1 and C2.

Take `Cc1cc(O)cc(C)c1C[C@H](NC(=O)[C@H](N)CCCNC(=N)N)C(=O)N[C@@H](CCCCN)c1nc(Cc2ccccc2)no1.Cl.Cl.Cl` [Compound Ia, (R)-2-amino-N—((S)-1-(((S)-5-amino-1-(3-benzyl-1,2,4-oxadiazol-5-yl)pentyl)amino)-3-(4-hydroxy-2,6-dimethylphenyl)-1-oxopropan-2-yl)-5-guanidinopentanamide·3HCl]: the “average neurite length per cell” value in assay [1] is “improved neurite length at all doses assessed”. Moreover, the “mutant alpha-synuclein-induced loss of dopaminergic neurons in the substantia nigra (number of TH positive neurons)” value in assay [2] is reported as “significantly attenuated”.

Values taken from patent US12016843B2, “Compositions and methods for the treatment of amyotrophic lateral sclerosis, parkinson's disease, parkinson's disease with dementia, dementia with lewy bodies, and multiple system atrophy” (priority 2019, dated 2024).
